Reference: article PMC4838342 (Nucleic Acids Research, 2015)
Ends that are not written are not given here.

Tests used:
(His)6-sNASP = test: Pulldown of MBP-H3 fusions by (His)6-sNASP (epitope mapping); assay type: binding, human; conditions: MBP fusions from whole cell bacterial extracts; Nickel-NTA beads; SDS-PAGE, Coomassie
Protocol: (§1) Protein was eluted in the same buffer with 250 mM imidazole, but without protease inhibitors. The (His)6 tag was cleaved overnight by TEV protease, whilst concomitantly dialysing to 100 mM sodium chloride, 20 mM Tris–HCl pH 8.0, 1 mM EDTA and 5 mM dithiothreitol. Cleaved protein was further purified by ion-exchange using a ResourceQ column (GE Healthcare) before gel filtration chromatography in 200 mM sodium chloride, 20 mM Hepes-KOH pH 7.6 and 1 mM EDTA using a 26/60 Superdex 200 column (GE Healthcare). The purified protein was concentrated and stored in aliquots at −80°C. Homologues, truncations and point mutants of sNASP were expressed and purified using the same method. MBP-H3 peptide fusions were expressed in bacteria and used as whole cell extracts (epitope mapping) or purified over a Dextrin Sepharose column (GE Healthcare) in one-step purification in 0.5 M sodium chloride, 20 mM Hepes-KOH pH 7.6, 1 mM EDTA and 5 mM dithiothreitol. Concentrated protein was dialysed against 200 mM sodium chloride, 20 mM Hepes-KOH, 1 mM EDTA and 5 mM dithiothreitol and stored in aliquots at −80°C.
Mutations were made in the MBP H3 116–135 construct using a mixture of site-direct mutagenesis and oligo ligation. Whole cell extracts were prepared from bacteria and used as inputs for the pulldown experiments with (His)6-sNASP pre-bound to Nickel-NTA beads (GE Healthcare).

sNASP [1] = test: Isothermal titration calorimetry, sNASP titrated into MBP H3 116–135; parameters: species or system human; conditions: one-site binding model
Protocol: Isotherms were analysed by the software NITPIC and SEDPHAT ([43]) and plotted using the software GUSSI.

sNASP [2] = test: Analytical gel filtration, sNASP + MBP H3 116–135; assay type: binding, human; conditions: Superdex S200; 20 mM Hepes-KOH pH 7.5, 200 mM NaCl
Protocol: (§2) Analytical gel filtration was carried out using a Superdex S200 10/300 Gl column (GE Healthcare) in 20 mM Hepes-KOH pH 7.5 and 200 mM sodium chloride, unless otherwise stated. 0.5 ml fractions were collected encompassing the void (7 ml) and bed (21 ml) volumes of the column. Fractions were separated by SDS-PAGE and stained with Coomassie Brilliant Blue (SERVA).

[3] = system: sNASP homologue from Arabidopsis thaliana; test: Pulldown of MBP H3 116–135 by A. thaliana sNASP homologue; assay type: binding; conditions: (His)6-tagged recombinant homologue
Protocol: as §1
(§3) Mutations were made in the MBP H3 116–135 construct using a mixture of site-direct mutagenesis and oligo ligation. Whole cell extracts were prepared from bacteria and used as inputs for the pulldown experiments with (His)6-sNASP pre-bound to Nickel-NTA beads (GE Healthcare). […]

Sim3 [4] = test: Pulldown of MBP H3 116–135 by Sim3; assay type: binding, Schizosaccharomyces pombe; conditions: (His)6-tagged recombinant homologue
Protocol: as §1, §3

[5] = system: sNASP homologue from Chaetomium thermophilum; test: Pulldown of MBP H3 116–135 by C. thermophilum sNASP homologue; assay type: binding; conditions: (His)6-tagged recombinant homologue
Protocol: as §1, §3

Hif1 = test: Pulldown of MBP H3 116–135 by Hif1; assay type: binding, Saccharomyces cerevisiae; conditions: (His)6-tagged recombinant homologue
Protocol: as §1, §3

Sim3 [6] = test: Gel filtration, Sim3 + MBP H3 116–135; assay type: binding, Schizosaccharomyces pombe; conditions: Superdex S200; 20 mM Hepes-KOH pH 7.5, 200 mM NaCl
Protocol: as §2

Hif1-GST = test: Gel filtration, Hif1-GST + MBP H3 116–135; assay type: binding, Saccharomyces cerevisiae; conditions: Superdex S200; 20 mM Hepes-KOH pH 7.5, 200 mM NaCl; Hif1 GST tagged
Protocol: as §2

sNASP [7] = test: Fluorescence-2-hybrid (F2H) assay at LacO array, EGFP-sNASP; assay type: cell-based, human; conditions: U2OS cells, LacO (256×) array, mCherry-LacI-histone constructs, live cells
Protocol: For all the F2H assays, we used human U2OS cells harbouring the stably integrated lacO (256×) array described earlier ([44]), except for mitochondrial F2H, which was carried out on U2OS cells without an integrated array. F2H assays were essentially performed as previously described in ([45],[46]) and ([44]). Image analysis was manually performed with ImageJ image analysis software. Fluorescence intensity at the LacI array was calculated as a percentage increase over the nucleoplasm. Assignment of the LacO array and nucleoplasm were done manually. Twenty cells were counted for statistical analysis so as not to inflate the calculated P-value. Only cells in which a clearly discernable array was present were counted. For the mitochondrial F2H, the first 70 residues of the outer mitochondrial membrane protein TOM70 were cloned onto the N-terminus of mCherry. Full length H3 or H3 residues 116–135 was then cloned onto the C-terminus of mCherry to create a TOM70-mCherry-Histone triple fusion. Deleting residues 378–383 using standard site-directed mutagenesis techniques disrupted the nuclear localization sequence (NLS) of mEGFP-sNASP, resulting in its cytoplasmic expression.

Question: “125–135: H3 fragment fused to MBP (QLARRIRGERA; also: fused to MBP; UniProt P68431 126-136, looked up, fragment)” was tested. Which “pulldown by (His)6-sNASP” value ((His)6-sNASP) did it give?
Answer: pulled down efficiently

Question: For “MBP H3 116–135: C-terminal 20 residues of H3 fused to MBP”, which stoichiometry in words (sNASP [1]; partial degradation likely caused underestimated ratios) is on record?
Answer: close to 1:1 stoichiometry

Question: And the Kd (sNASP [1]; range of n = 3 with varying cell and titrant concentrations, read-out: dissociation constant)?
Answer: 47 to 68 nM

Question: And the “pulldown by (His)6-sNASP” value ((His)6-sNASP)?
Answer: pulled down to near stoichiometric amounts

Question: And the “complex formation by gel filtration” value (sNASP [2])?
Answer: form a stable complex

Question: And the “pulldown by A. thaliana homologue” value [3]?
Answer: pulled down stoichiometric amounts

Question: And the “pulldown by S. pombe homologue (Sim3)” value (Sim3 [4])?
Answer: pulled down stoichiometric amounts

Question: And the “pulldown by C. thermophilum homologue” value [5]?
Answer: pulled down stoichiometric amounts

Question: What about the “pulldown by S. cerevisiae homologue (Hif1)” value (Hif1) of the same substance?
Answer: no pull down was observed

Question: What about the “complex formation with Sim3 by gel filtration” value (Sim3 [6]) of the same substance?
Answer: coeluted

Question: What about the “complex formation with Hif1-GST by gel filtration” value (Hif1-GST) of the same substance?
Answer: eluted in separate fractions

Question: How did the “interaction with sNASP in F2H assay” value (sNASP [7]) turn out when “last 20 residues of H3: short region encompassing the last 20 residues of H3” was run?
Answer: sufficient for binding

Question: For “CENPA: homologous region of the CENPA variant of H3 from human (VTLFPKDVQLARRIRGLEE; UniProt P49450 119-137, looked up, fragment)”, which “pulldown by (His)6-sNASP” value ((His)6-sNASP) is on record?
Answer: able to pull down
